Results taken from US10961200B2, “Small molecule inhibitors of lactate dehydrogenase and methods of use thereof” (THE UNITED STATES OF AMERICA, AS REPRESENTED BY THE …, priority 2014, dated 2021).

Molecular target: Human LDHA (Homo sapiens (Human), UniProt P00338)
Experiment: human LDHA primary biochemical assay (resazurin/diaphorase coupled, fluorescence)
Settings: LDHA inhibitory activity, assay of Example 1; activity level classes
From the text: Test compounds were placed in a Greiner Bio-One (Monroe, N.C.) 1536-well black solid bottom assay plate. 200 millimolar (mM) Tris HCl, pH 7.4, 100 micromolar […] EDTA and 0.01% TWEEN-20™, final concentration, was used as the assay buffer. The LDHA reagent was 2 nanomolar (nM) Human LDHA (Meridian Life Science, Inc., Memphis, Tenn.), final concentration, in assay buffer.

CCOC(=O)c1csc(-n2nc(C3CC3)c(Cc3ccc(S(N)(=O)=O)cc3)c2-c2cccc(-c3ccccc3)c2)n1 [Compound 180, ethyl 2-(5-([1,1′-biphenyl]-3-yl)-3-cyclopropyl-4-(4-sulfamoylbenzyl)-1H-pyrazol-1-yl)thiazole-4-carboxylate] and CCOC(=O)c1csc(-n2nc(-c3cccc(-c4ccccc4)c3)c(Cc3ccc(S(N)(=O)=O)cc3)c2C2CC2)n1 [Compound 181, ethyl 2-(3-([1,1′-biphenyl]-3-yl)-5-cyclopropyl-4-(4-sulfamoylbenzyl)-1H-pyrazol-1-yl)thiazole-4-carboxylate] cannot be ordered by IC50: greater than 57000 nM for the first, greater than 57000 nM for the second.

COC(=O)c1cnc(-n2nc(-c3ccccc3)c(Cc3ccc(S(N)(=O)=O)cc3)c2N)nc1C(F)(F)F [Compound 190, methyl 2-(5-amino-3-phenyl-4-(4-sulfamoylbenzyl)-1H-pyrazol-1-yl)-4-(trifluoromethyl)pyrimidine-5-carboxylate] and Nc1c(Cc2ccc(S(N)(=O)=O)cc2)c(-c2ccccc2)nn1-c1ccc(C(=O)O)nn1 [Compound 191, 6-(5-amino-3-phenyl-4-(4-sulfamoylbenzyl)-1H-pyrazol-1-yl)pyridazine-3-carboxylic acid] cannot be ordered by IC50: greater than 57000 nM for the first, greater than 57000 nM for the second.

NS(=O)(=O)c1ccc(Cc2cn(-c3nc(C(=O)O)cs3)c3ccc(-c4ccccc4F)cc23)cc1 [Compound 195, 2-(5-(2-fluorophenyl)-3-(4-sulfamoylbenzyl)-1H-indol-1-yl)thiazole-4-carboxylic acid] and NS(=O)(=O)c1ccc(Cc2c(-c3cccc(-c4ccccc4)c3)nn(-c3nc(C(=O)O)cs3)c2C2CC2(F)F)cc1 (centres unmarked) [Compound 205, 2-(3-([1,1′-biphenyl]-difluorocyclopropyl)-4-(4-sulfamoylbenzyl)-1H-pyrazol-1-yl)thiazole-4-carboxylic acid] cannot be ordered by IC50: less than 100 nM for the first, less than 100 nM for the second.

O=C(O)c1csc(-n2cc(Cc3ccc(CO)cc3)c(-c3ccccc3)n2)n1 [Compound 199, 2-(4-(4-(hydroxymethyl)benzyl)-3-phenyl-1H-pyrazol-1-yl)thiazole-4-carboxylic acid] and NS(=O)(=O)c1ccc(Cc2cn(-c3csc4c(=O)[nH]cnc34)nc2-c2ccccc2)cc1 [Compound 210, 4-((1-(4-oxo-3,4-dihydrothieno[3,2-d]pyrimidin-7-yl)-3-phenyl-1H-pyrazol-4-yl)methyl)benzenesulfonamide] cannot be ordered by IC50: greater than 57000 nM for the first, greater than 57000 nM for the second.

Same assay, conditions: read-out: Inhibitory activity IC50

First: NS(=O)(=O)c1ccc(Cc2c(-c3ccccc3)nn(-c3nc(C(=O)O)cs3)c2C#Cc2ccccc2)cc1 [Compound 179, 2-(3-phenyl-5-(phenylethynyl)-4-(4-sulfamoylbenzyl)-1H-pyrazol-1-yl)thiazole-4-carboxylic acid]
Second: NS(=O)(=O)c1ccc(Cc2c(-c3ccccc3)nn(-c3nc(C(=O)O)cs3)c2Cc2ccccc2)cc1 [Compound 185, 2-(5-benzyl-3-phenyl-4-(4-sulfamoylbenzyl)-1H-pyrazol-1-yl)thiazole-4-carboxylic acid]
The IC50 of the first is higher: 1000 to 57000 nM for the first, 100 to 1000 nM for the second.

NS(=O)(=O)c1ccc(Cc2c(C3CC3)nn(-c3nc(C(=O)O)cs3)c2-c2cccc(-c3ccccc3)c2)c(F)c1 [Compound 182] and NS(=O)(=O)c1ccc(Cc2c(C3CC3)nn(-c3nc(C(=O)O)cs3)c2-c2cccc(-c3ccccc3)c2)cc1 [Compound 184, 2-(5-([1,1′-biphenyl]-3-yl)-3-cyclopropyl-4-(4-sulfamoylbenzyl)-1H-pyrazol-1-yl)thiazole-4-carboxylic acid] fall in the same range of IC50: 1000 to 57000 nM for the first, 1000 to 57000 nM for the second.

NS(=O)(=O)c1ccc(Oc2c(C3CC3)nn(-c3nc(C(=O)O)cs3)c2-c2cccc(-c3ccccc3)c2)cc1 [Compound 186, 2-(5-([1,1′-biphenyl]-3-yl)-3-cyclopropyl-4-(4-sulfamoylphenoxy)-1H-pyrazol-1-yl)thiazole-4-carboxylic acid] and NS(=O)(=O)c1ccc(Cc2c(CCC3CC3)nn(-c3nc(C(=O)O)cs3)c2-c2cccc(-c3ccccc3)c2)cc1 [Compound 204, 2-(5-([1,1′-biphenyl]-3-yl)-3-(2-cyclopropylethyl)-4-(4-sulfamoylbenzyl)-1H-pyrazol-1-yl)thiazole-4-carboxylic acid] fall in the same range of IC50: 1000 to 57000 nM for the first, 1000 to 57000 nM for the second.

Compared with NS(=O)(=O)c1ccc(Cc2c(CC3CC3)nn(-c3nc(C(=O)O)cs3)c2-c2ccccc2)cc1 [Compound 188, 2-(3-(cyclopropylmethyl)-5-phenyl-4-(4-sulfamoylbenzyl)-1H-pyrazol-1-yl)thiazole-4-carboxylic acid], NS(=O)(=O)c1ccc(Cc2c(CC3CC3(F)F)nn(-c3nc(C(=O)O)cs3)c2-c2cccc(-c3ccccc3)c2)cc1 (centres unmarked) [Compound 208, 2-(5-([1,1′-biphenyl]-3-yl)-5-((2,2-difluorocyclopropyl)methyl)-4-(4-sulfamoylbenzyl)-1H-pyrazol-1-yl)thiazole-4-carboxylic acid] is higher in IC50: 100 to 1000 nM for the first, 1000 to 57000 nM for the second.

NS(=O)(=O)c1ccc(Cc2cn(-c3nc(C(=O)O)cs3)c3cc(CN4CCOCC4)ccc23)cc1 [Compound 192, 2-(6-(morpholinomethyl)-3-(4-sulfamoylbenzyl)-1H-indol-1-yl)thiazole-4-carboxylic acid] and NS(=O)(=O)c1ccc(Cc2cn(-c3nc(C(=O)O)cs3)c3cccc(CN4CCOCC4)c23)cc1 [Compound 193, 2-(4-(morpholinomethyl)-3-(4-sulfamoylbenzyl)-1H-indol-1-yl)thiazole-4-carboxylic acid] fall in the same range of IC50: 100 to 1000 nM for the first, 100 to 1000 nM for the second.

NS(=O)(=O)c1ccc(Cc2cn(-c3nc(C(=O)O)cs3)c3ccc(Cc4ccccc4F)cc23)cc1 [Compound 194, 2-(5-(2-fluorobenzyl)-3-(4-sulfamoylbenzyl)-1H-indol-1-yl)thiazole-4-carboxylic acid] and NS(=O)(=O)c1ccc(Cc2cn(-c3nc(C(=O)O)cs3)c3cccc(Cc4ccccc4F)c23)cc1 [Compound 198, 2-(4-(2-fluorobenzyl)-3-(4-sulfamoylbenzyl)-1H-indol-1-yl)thiazole-4-carboxylic acid] fall in the same range of IC50: 100 to 1000 nM for the first, 100 to 1000 nM for the second.

NS(=O)(=O)c1ccc(Cc2cn(-c3nc(C(=O)O)cs3)c3ccccc23)cc1 [Compound 196, 2-(3-(4-sulfamoylbenzyl)-1H-indol-1-yl)thiazole-4-carboxylic acid] and NS(=O)(=O)c1ccc(Cc2cn(-c3nc(C(=O)O)cs3)c3c(F)cccc23)cc1 [Compound 202, 2-(7-fluoro-3-(4-sulfamoylbenzyl)-1H-indol-1-yl)thiazole-4-carboxylic acid] fall in the same range of IC50: 100 to 1000 nM for the first, 100 to 1000 nM for the second.

NS(=O)(=O)c1ccc(Cc2cn(-c3nc(C(=O)O)cs3)c3cc(C(F)(F)F)ccc23)cc1 [Compound 197, 2-(3-(4-sulfamoylbenzyl)-6-(trifluoromethyl)-1H-indol-1-yl)thiazole-4-carboxylic acid] and NS(=O)(=O)c1ccc(Cc2cn(-c3nc(C(=O)O)cs3)c3cc(CO)ccc23)cc1 [Compound 201, 2-(6-(hydroxymethyl)-3-(4-sulfamoylbenzyl)-1H-indol-1-yl)thiazole-4-carboxylic acid] fall in the same range of IC50: 100 to 1000 nM for the first, 100 to 1000 nM for the second.

O=C(O)c1csc(-n2cc(Cc3ccc(CO)cc3)c(-c3cccc(-c4ccccc4)c3)n2)n1 [Compound 200, 2-(3-([1,1′-biphenyl]-3-yl)-4-(4-(hydroxymethyl)benzyl)-1H-pyrazol-1-yl)thiazole-4-carboxylic acid] and Nc1ncnc2c(-n3cc(Cc4ccc(S(N)(=O)=O)cc4)c(-c4ccccc4)n3)csc12 [Compound 211, 4-((1-(4-aminothieno[3,2-d]pyrimidin-7-yl)-3-phenyl-1H-pyrazol-4-yl)methyl)benzenesulfonamide] fall in the same range of IC50: 1000 to 57000 nM for the first, 1000 to 57000 nM for the second.

Cc1noc(C)c1-c1cc(-c2c(Cc3ccc(S(N)(=O)=O)cc3F)c(CC3CC3)nn2-c2nc(C(=O)O)cs2)ccc1F [Compound 216, 2-(3-(cyclopropylmethyl)-5-(3-(3,5-dimethylisoxazol-4-yl)-4-fluorophenyl)-4-(2-fluoro-4-sulfamoylbenzyl)-1H-pyrazol-1-yl)thiazole-4-carboxylic acid] and Cc1noc(C)c1-c1cc(-c2c(Cc3ccc(S(N)(=O)=O)c(F)c3)c(CC3CC3)nn2-c2nc(C(=O)O)cs2)ccc1F [Compound 220, 2-(3-(cyclopropylmethyl)-5-(3-(3,5-dimethylisoxazol-4-yl)-4-fluorophenyl)-4-(3-fluoro-4-sulfamoylbenzyl)-1H-pyrazol-1-yl)thiazole-4-carboxylic acid] cannot be ordered by IC50: greater than 57000 nM for the first, greater than 57000 nM for the second.

Cn1cc(-c2cc(-c3c(Cc4ccc(S(N)(=O)=O)c(F)c4)c(CC4CC4)nn3-c3nc(C(=O)O)cs3)ccc2F)cn1 [Compound 218, 2-(3-(cyclopropylmethyl)-5-(4-fluoro-3-(1-methyl-1H-pyrazol-4-yl)phenyl)-4-(3-fluoro-4-sulfamoylbenzyl)-1H-pyrazol-1-yl)thiazole-4-carboxylic acid] and Cc1csc(-c2cc(-c3c(Cc4ccc(S(N)(=O)=O)c(F)c4)c(CC4CC4)nn3-c3nc(C(=O)O)cs3)ccc2F)c1 [Compound 224, 2-(3-(cyclopropylmethyl)-5-(4-fluoro-3-(4-methylthiophen-2-yl)phenyl)-4-(3-fluoro-4-sulfamoylbenzyl)-1H-pyrazol-1-yl)thiazole-4-carboxylic acid] cannot be ordered by IC50: greater than 57000 nM for the first, greater than 57000 nM for the second.

Cc1csc(-c2cc(-c3c(Cc4ccc(S(N)(=O)=O)cc4F)c(CC4CC4)nn3-c3nc(C(=O)O)cs3)ccc2F)c1 [Compound 222, 2-(3-(cyclopropylmethyl)-5-(4-fluoro-3-(4-methylthiophen-2-yl)phenyl)-4-(2-fluoro-4-sulfamoylbenzyl)-1H-pyrazol-1-yl)thiazole-4-carboxylic acid] and Cc1ccc(-c2cc(-c3c(Cc4ccc(S(N)(=O)=O)cc4F)c(CC4CC4)nn3-c3nc(C(=O)O)cs3)ccc2F)s1 [Compound 226, 2-(3-(cyclopropylmethyl)-5-(4-fluoro-3-(5-methylthiophen-2-yl)phenyl)-4-(2-fluoro-4-sulfamoylbenzyl)-1H-pyrazol-1-yl)thiazole-4-carboxylic acid] cannot be ordered by IC50: greater than 57000 nM for the first, greater than 57000 nM for the second.
